The subject of one assay is frog atrial cells. Conditions: cited from earlier work.
For assay [1], the system named is T type calcium channel. Briefly: Patch clamp (voltage clamp) of T type calcium channel current in neuroblastoma cells. Conditions: for T type calcium channel current: 1 uM, neuroblastoma cells, FIG. 3. It counts as cell-based, mouse.
A further assay deals with L type calcium channel. Nature of the assay: Patch clamp (voltage clamp) of L type calcium channel current in neuroblastoma cells. It counts as cell-based, mouse. On the technique in general: In patch-clamp work, channel activity is measured electrically.
The test system of the next assay is neuroblastoma cell. Nature of the assay: Current clamp measurement of membrane potential of a neuroblastoma cell. It counts as cell-based, mouse.
The subject of assay [2] is L and T type calcium channels. Conditions: cited from earlier work.
In assay [3] the test system is T type calcium channel. Nature of the assay: Patch clamp (voltage clamp) of T type calcium channel current in chick dorsal root ganglion neurons. The class given is cell-based, chick (gallus domesticus). As to conditions: DRG neurons; FIG. 2B.
Another assay has as its system right atrium. Conditions: spontaneously beating right atrium; cited from earlier work.
Another assay has as its system SA node. As to conditions: cited from earlier work.

This is an account of results in US4894376A, “Methods of treating diseases characterized by hyperexcitability of neurons” (Trustees of the University of Pennsylvania, priority 1988, dated 1990).

With `N=C(NCc1ccc(Cl)c(Cl)c1)NC(=O)c1nc(Cl)c(N)nc1N` [3,4-dichlorobenzamil], the calcium currents result in the assay on frog atrial cells was “inhibited calcium currents in frog atrial cells”.

For the compound `N=C(NCc1ccccc1)NC(=O)c1nc(Cl)c(N)nc1N` [benzamil], in the assay on T type calcium channel [1], the “T type calcium channel current” value is reported as “reversably suppresses the bulk of the T type calcium channel current”. Besides, in the assay on T type calcium channel [1] (relative to amiloride), the “increase of T channel activity by addition of a benzyl moiety to the guanidine portion of amiloride” value is “about fifty”. Also, the L type current result in the assay with L type calcium channel (1 uM, neuroblastoma cells, FIG. 3) is reported as “without suppressing the L type current”. Besides, in the assay with neuroblastoma cell (5 uM, after 1 uM TTX, current pulses of 40 picoamps, FIG. 4), the regenerative depolarization result was “further decreased the regenerative depolarization”.

Turning to `COc1ccc([C@@H]2Sc3ccccc3N(CCN(C)C)C(=O)[C@@H]2OC(C)=O)cc1` [diltiazem], in assay [2], the “calcium channel type blocked” value is “block both the L and T type calcium channels”.

With `COc1ccc(CNC(=N)NC(=O)c2nc(Cl)c(N)nc2N)cc1OC` [Dimethoxybenzamil, 3,4-dimethoxybenzamil], the “T type calcium channel current” value with T type calcium channel [1] was “similarly suppresses the T type current”.

With `COC(=O)C1=C(C)NC(C)=C(C(=O)OC)C1c1ccccc1[N+](=O)[O-]` [Nifidepine, nifidepine], the “calcium channel type blocked” value in assay [2] is “blocks only the L type calcium channel”.

In the case of `COc1ccc(CCN(C)CCCC(C#N)(c2ccc(OC)c(OC)c2)C(C)C)cc1OC` (stereo not shown) [Verapamil, verapamil], in assay [2], the “calcium channel type blocked” value is “block both the L and T type calcium channels”.

Turning to `N=C(N)NC(=O)c1nc(Cl)c(N)nc1N` [amiloride], in the assay on T type calcium channel [1] (N1E-115 cells, held at -90 mV, depolarization to -20 mV, FIG. 1A, 1C), the “T type calcium channel current (transient current)” value was “suppresses this T type channel current”. Moreover, in the assay on L type calcium channel (N1E-115 cells, held at -90 mV, depolarization to +20 mV, FIG. 1A, 1D), the “L type calcium channel current (slow inactivating current)” value is “does not appreciably suppress this L type channel current”. Also, the “T type calcium channel current” value with T type calcium channel [3] was “completely suppressed the T type calcium channel current”. In the assay on neuroblastoma cell (250 uM, current pulse to threshold and slightly above threshold, FIG. 5), the “neuronal excitability near threshold” value is reported as “suppress neuronal excitability at membrane potential near the threshold for regenerative depolarization”. In addition, the “depolarization well above threshold” value in the assay on neuroblastoma cell (250 uM, higher degree of stimulation, FIG. 5) is “does not block the depolarization at higher degree of stimulation”. For the same compound, the frequency of contractions entry in the assay with right atrium is on record as “decreased the frequency of contractions of the spontaneously beating right atrium”. For the same compound, the chronotropic action entry with SA node was “negative chronotropic action on the SA node”.
